Laboratory results: patent publication US20250243180A1, “TARGETED PROTEIN DEGRADATION” (Monte Rosa Therapeutics AG, priority 2023, published 2025)
Like-named read-outs stand apart in the source and are kept apart here.

Experiments:
CRBN-DDB1 = CRBN-DDB1 (Homo sapiens (Human), UniProt Q96SW2); assay: Compound binding to CRBN by HTRF assay
Outline: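 Ki calculated via Cheng-Prusoff from geometric-mean EC50 values, after normalizing the HTRF ratio to lenalidomide (active) and DMSO (neutral) controls. Compounds (11 points, 1:3 steps) incubated 30 min at ambient temperature with CRBN-DDB1 2.5 nM, anti-His Tb cryptate and Cy5-thalidomide tracer 100 nM.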

NEK7 = NEK7 (Homo sapiens (Human), UniProt Q8TDX7+Q96SW2); assay: NEK7 NanoBiT degradation assay in Cal51 NEK7 NanoBiT cell line; assay type: cell-based; settings: Cal51 NEK7 NanoBiT cells, 24 hours; for Dmax: CAL-51
Sequence of NEK7 (Q8TDX7 whole entry): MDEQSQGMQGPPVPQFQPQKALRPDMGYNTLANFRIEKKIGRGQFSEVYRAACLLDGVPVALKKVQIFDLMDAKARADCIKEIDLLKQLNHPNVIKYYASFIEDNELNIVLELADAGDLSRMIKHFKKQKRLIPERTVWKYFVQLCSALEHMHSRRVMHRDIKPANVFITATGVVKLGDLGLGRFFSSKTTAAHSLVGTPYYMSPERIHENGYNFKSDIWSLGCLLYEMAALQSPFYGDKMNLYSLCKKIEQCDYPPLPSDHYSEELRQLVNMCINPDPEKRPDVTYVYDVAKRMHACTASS
Sequence of NEK7 (Q96SW2 whole entry): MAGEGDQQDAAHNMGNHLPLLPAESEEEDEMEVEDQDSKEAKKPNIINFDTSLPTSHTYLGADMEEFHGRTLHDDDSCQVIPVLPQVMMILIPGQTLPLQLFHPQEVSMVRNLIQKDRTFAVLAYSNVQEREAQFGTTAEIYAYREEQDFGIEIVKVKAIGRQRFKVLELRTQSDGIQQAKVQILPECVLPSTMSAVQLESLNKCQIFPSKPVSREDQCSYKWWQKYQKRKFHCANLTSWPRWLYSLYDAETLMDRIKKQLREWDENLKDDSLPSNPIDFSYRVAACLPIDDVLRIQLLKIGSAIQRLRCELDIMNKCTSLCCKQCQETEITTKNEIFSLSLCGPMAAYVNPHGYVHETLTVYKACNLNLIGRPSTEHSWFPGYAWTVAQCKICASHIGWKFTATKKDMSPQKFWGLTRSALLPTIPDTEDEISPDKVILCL
Sequence of NEK7 (Q16531 2-1140 partner): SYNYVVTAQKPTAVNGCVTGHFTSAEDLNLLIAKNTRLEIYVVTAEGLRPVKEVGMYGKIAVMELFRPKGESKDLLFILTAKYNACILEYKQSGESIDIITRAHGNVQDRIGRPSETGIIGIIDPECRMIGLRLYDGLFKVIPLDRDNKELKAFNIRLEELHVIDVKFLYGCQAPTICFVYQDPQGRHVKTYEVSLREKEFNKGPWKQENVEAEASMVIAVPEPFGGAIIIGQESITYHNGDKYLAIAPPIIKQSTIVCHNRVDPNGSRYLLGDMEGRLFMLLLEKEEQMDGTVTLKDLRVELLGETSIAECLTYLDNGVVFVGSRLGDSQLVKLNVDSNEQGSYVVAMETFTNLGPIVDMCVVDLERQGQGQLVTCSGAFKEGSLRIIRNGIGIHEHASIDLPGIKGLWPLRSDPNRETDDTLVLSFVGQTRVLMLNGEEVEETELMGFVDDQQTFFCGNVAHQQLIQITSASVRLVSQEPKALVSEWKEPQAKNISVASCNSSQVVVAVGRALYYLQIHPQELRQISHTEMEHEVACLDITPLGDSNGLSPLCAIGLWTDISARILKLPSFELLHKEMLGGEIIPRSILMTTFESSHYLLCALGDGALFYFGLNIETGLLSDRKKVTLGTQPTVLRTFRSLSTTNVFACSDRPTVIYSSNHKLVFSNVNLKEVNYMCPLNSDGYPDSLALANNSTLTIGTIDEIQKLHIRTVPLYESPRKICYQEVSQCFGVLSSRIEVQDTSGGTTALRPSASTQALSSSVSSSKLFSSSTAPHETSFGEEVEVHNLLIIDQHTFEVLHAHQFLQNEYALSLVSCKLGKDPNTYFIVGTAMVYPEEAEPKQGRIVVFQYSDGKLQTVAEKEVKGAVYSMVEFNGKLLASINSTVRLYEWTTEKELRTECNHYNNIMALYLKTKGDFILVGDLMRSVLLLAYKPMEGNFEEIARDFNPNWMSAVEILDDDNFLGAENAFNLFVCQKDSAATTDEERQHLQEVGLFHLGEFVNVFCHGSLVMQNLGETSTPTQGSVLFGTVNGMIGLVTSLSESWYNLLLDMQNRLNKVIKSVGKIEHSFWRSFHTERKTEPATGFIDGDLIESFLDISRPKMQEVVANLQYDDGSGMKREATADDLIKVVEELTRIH
Outline: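 EC50 comes from a 4-parameter fit of control-normalized luminescence. The luminescence reports HiBiT-NEK7 (endogenous knock-in) complemented by stably expressed LgBiT in Cal51 cells after 24 h compound exposure at 37 °C. Final concentrations ran 1 μM to 0.05 nM, with Endurazine substrate present in the medium throughout.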

Caspase-1 activity [1] = assay: Caspase-1 activity in human monocyte-derived macrophages, LPS/nigericin stimulation; assay type: cell-based; settings: Macrophage, 24 h pre-treatment, LPS 3 h then 10 μM nigericin 1 h, read-out: Caspase-1 IC50 (NIG)
Protocol: (§1) Human monocytes were enriched and isolated from a buffy coat of healthy donor whole blood with a RosetteSep™ Human Monocyte Enrichment Cocktail (Cat.No. 15068, StemCell) and Ficoll-Plaque PLUS (Cat.No. H8889, Sigma). Monocytes were differentiated into macrophages by treatment with 100 ng/mL M-CSF for 6 days at 37° C., 5% CO2. Differentiated macrophages were seeded overnight (50,000 cells/well) in 100 µL of medium in a 96-well, white-bottom plate at 37° C., 5% CO2. Cells were treated with a concentration range of MGD for 24 hours prior to stimulation with nigericin. Macrophages were primed with […] LPS for 3 h followed by 1 h stimulation with 10 μM nigericin. Media of stimulated macrophages were collected and assayed for caspase 1 activity directly (Promega G9951), according to manufacturer's instructions. For IL-1β release assay, media of stimulated macrophages were collected and stored at −20° C., then thawed at 4° C. before assaying for IL-1β activity (Promega W6011), according to manufacturer's instructions.

IL-1β release = IL-1β release in human monocyte-derived macrophages, LPS/nigericin stimulation; assay type: cell-based; settings: Macrophage, 24 h pre-treatment, LPS 3 h then 10 μM nigericin 1 h, read-out: IL-1b IC50 (NIG)
Protocol: as §1

[2] = tested on: New Zealand White rabbits, MSU crystal gout model; assay: In vivo rabbit gout model (intra-articular MSU): joint swelling and CD31 staining; settings: daily prophylactic treatment
Protocol: MSU crystals were prepared by dissolving uric acid (Aladdin, cat #U105582) in boiling water (1 g in 200 mL with 6 mL of 1 N NaOH). PH value was adjusted to 7.2 by HCl. The solution was stirred and cooled to room temperature and stored at 4° C. overnight. The precipitate was filtered with filter paper and dried under low heat to obtain MSU crystals. New Zealand White rabbits received an intra-articular injection of 1 mL of MSU crystals (50 mg/mL) into both knees (MSU group) or PBS (as vehicle, control group). n=10 for MSU groups; n=6 for PBS group.
For immunohistochemistry, bone sections were stained with anti-CD31 (Abcam #ab9498) diluted at 1:500. The nuclei were stained with hematoxylin. Slides were scanned using LEICA Aperio GT450 at 400× magnification. The number of positive blood vessels were counted blindly.
(a) To determine NEK7 degradation, spleens and peripheral blood mononuclear cells (PBMC) were analyzed by JESS for NEK7 and normalized to α-Tubulin from five representative animals. (b) The degree of joint swelling was determined by caliper measurements at the indicated time points. (c) Rabbit bone tissue sections were stained and quantified for anti-CD31 immunohistochemistry. Results expressed as mean±SEM. Statistical analysis was performed using two-way ANOVA. The difference was considered significant when p<0.05.

Caspase-1 activity [3] = assay: Caspase-1 activity in human monocyte-derived macrophages, LPS/MSU stimulation; assay type: cell-based; settings: 24 h pre-treatment, LPS + MSU 6 h, eight donors
Protocol: (§2) Human monocytes were enriched and isolated from a buffy coat of whole blood with a RosetteSep™ Human Monocyte Enrichment Cocktail (Cat.No. 15068, StemCell) and Ficoll-Plaque PLUS (Cat.No. H8889, Sigma). Monocytes were differentiated into macrophages by treatment with 100 ng/mL M-CSF for 6 days at 37° C., 5% CO2. Differentiated macrophages were seeded overnight (50,000 cells/well) in 100 μL of medium in a 96-well white-bottom plate at 37° C., 5% CO2. Cells were treated with a concentration range of MGD or the NLRP3 inhibitor selnoflast (Cat.No. HY-132831, MedChemExpress) for 24 h prior to stimulation with monosodium urate crystals (MSU). Macrophages were stimulated with […] lipopolysaccharide (LPS) and 0.2 mg/mL MSU for 6 h. Medium of stimulated macrophages were collected and assayed for caspase-1 activity directly (Promega G9951) as well as IL-1β (Promega W6010), according to manufacturer's instructions.
(§3) (a, b) Human monocyte-derived macrophages pre-treated with a dose-response of Compound 14 or selnoflast (NLRP3 inhibitor) for 24 h and stimulated with a combination of lipopolysaccharide (LPS) and monosodium urate crystals (MSU) for 6 h prior to supernatant collection. Monocytes were isolated from eight human donors. Caspase-1 (a) and IL-1β (b) in the supernatant are measured and data are expressed as percentage relative to mean values of DMSO conditions for each donor (technical triplicates). Means of eight donors are plotted and analyzed using a four-parameter logistic regression model.

IL-1β = IL-1β in human monocyte-derived macrophages, LPS/MSU stimulation; assay type: cell-based; settings: 24 h pre-treatment, LPS + MSU 6 h, eight donors
Protocol: as §2, §3

[4] = NEK7 degradation, read-out: NanoBiT Dmax
[5] = NEK7 degradation, read-out: NanoBiT DC50

Sequence of CRBN-DDB1 (Q96SW2 whole entry): as the sequence (Q96SW2 whole entry) above
Sequence of CRBN-DDB1 (Q16531 whole entry partner): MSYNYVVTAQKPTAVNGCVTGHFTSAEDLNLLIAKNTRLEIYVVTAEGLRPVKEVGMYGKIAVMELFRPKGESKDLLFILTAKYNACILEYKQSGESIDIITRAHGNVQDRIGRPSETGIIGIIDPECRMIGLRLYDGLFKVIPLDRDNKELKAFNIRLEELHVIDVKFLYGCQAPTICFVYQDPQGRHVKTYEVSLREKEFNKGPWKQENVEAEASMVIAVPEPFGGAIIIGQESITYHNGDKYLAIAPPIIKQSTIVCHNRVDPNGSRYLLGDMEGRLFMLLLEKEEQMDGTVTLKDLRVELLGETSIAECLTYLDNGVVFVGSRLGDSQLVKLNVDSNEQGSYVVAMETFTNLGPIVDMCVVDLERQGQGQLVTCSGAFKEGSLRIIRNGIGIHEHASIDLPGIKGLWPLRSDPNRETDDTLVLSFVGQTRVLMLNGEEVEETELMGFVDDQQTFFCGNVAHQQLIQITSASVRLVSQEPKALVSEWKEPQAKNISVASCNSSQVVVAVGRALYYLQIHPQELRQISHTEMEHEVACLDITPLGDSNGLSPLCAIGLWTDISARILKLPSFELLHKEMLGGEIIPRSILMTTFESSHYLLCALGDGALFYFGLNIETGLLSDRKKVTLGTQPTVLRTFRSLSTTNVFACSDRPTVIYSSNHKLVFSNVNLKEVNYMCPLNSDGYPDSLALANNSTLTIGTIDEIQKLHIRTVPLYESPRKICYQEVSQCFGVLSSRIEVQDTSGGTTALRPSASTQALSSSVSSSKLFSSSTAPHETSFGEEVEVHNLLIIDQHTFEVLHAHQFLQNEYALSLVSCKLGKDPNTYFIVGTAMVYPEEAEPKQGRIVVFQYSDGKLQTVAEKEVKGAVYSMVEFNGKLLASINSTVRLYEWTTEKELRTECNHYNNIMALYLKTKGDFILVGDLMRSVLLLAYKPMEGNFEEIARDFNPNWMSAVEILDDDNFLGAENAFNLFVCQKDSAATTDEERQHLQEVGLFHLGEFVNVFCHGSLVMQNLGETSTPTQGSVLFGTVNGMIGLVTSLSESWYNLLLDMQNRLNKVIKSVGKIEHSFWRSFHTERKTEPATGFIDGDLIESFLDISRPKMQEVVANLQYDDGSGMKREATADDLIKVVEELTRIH

EC50 (CRBN-DDB1) [nM]	EC50 (CRBN-DDB1; HTRF class, Cereblon binding) [nM]	Dmax (NEK7; read-out: NEK7 NanoBiT Dmax) [%]	Dmax (NEK7; [4]) [%]	DC50 (NEK7; read-out: NEK7 NanoBiT DC50) [nM]	DC50 (NEK7; [5]) [nM]	IC50 (Caspase-1 activity [1]) [nM]	IC50 (IL-1β release) [nM]	IC50 (Caspase-1 activity [3]; Homo sapiens, Macrophage) [nM]	IC50 (IL-1β; Homo sapiens, Macrophage) [nM]	SMILES	CD31 staining in bone tissue [2]	joint swelling induced by intra-articular MSU injection [2]	Caspase-1 activity Imax (Caspase-1 activity [3]) [%]	IL-1β Imax (IL-1β) [%]
100	≤ 100	92	> 75	6	≤ 100	0.82	1.21	–	–	Cc1cc(C(C)(C)C(=O)NCc2cc(Cl)c(C3CCC(=O)NC3=O)c(Cl)c2)ccn1 (stereo not drawn) [Compound 95]	–	–	–	–
170	100 to 1000	76	> 75	50	≤ 100	5.84	5.23	–	–	CC(C)(C(=O)NCc1cc(Cl)c(C2CCC(=O)NC2=O)c(Cl)c1)c1ccnc(C(F)(F)F)c1 (stereo not drawn) [Compound 97]	–	–	–	–
80	≤ 100	92	> 75	3	≤ 100	0.54	0.41	–	–	CC(C)(C(=O)NCc1cc(Cl)c(C2CCC(=O)NC2=O)c(Cl)c1)c1ccncc1 (stereo not drawn) [Compound 108]	–	–	–	–

More lines, now with the values behind:

SMILES	EC50 (CRBN-DDB1) [nM]	EC50 (CRBN-DDB1; HTRF class, Cereblon binding) [nM]	Dmax (NEK7; read-out: NEK7 NanoBiT Dmax) [%]	Dmax (NEK7; [4]) [%]	DC50 (NEK7; read-out: NEK7 NanoBiT DC50) [nM]	DC50 (NEK7; [5]) [nM]	IC50 (Caspase-1 activity [1]) [nM]	IC50 (IL-1β release) [nM]	IC50 (Caspase-1 activity [3]; Homo sapiens, Macrophage) [nM]	IC50 (IL-1β; Homo sapiens, Macrophage) [nM]	CD31 staining in bone tissue [2]	joint swelling induced by intra-articular MSU injection [2]	Caspase-1 activity Imax (Caspase-1 activity [3]) [%]	IL-1β Imax (IL-1β) [%]
CC(C)(C(=O)NCc1cc(Cl)c(C2CCC(=O)NC2=O)c(Cl)c1)c1ccc(F)cc1 (stereo not drawn) [Compound 96]	80	≤ 100	97	> 75	1	≤ 100	0.13	0.2	–	–	–	–	–	–
Cc1nnc(C(C)(C)C(=O)NCc2cc(Cl)c(C3CCC(=O)NC3=O)c(Cl)c2)o1 (stereo not drawn) [Compound 110]	320	100 to 1000	76	> 75	50	≤ 100	11.2	9.87	–	–	–	–	–	–
Cc1cnc(C(C)(C)C(=O)NCc2cc(Cl)c(C3CCC(=O)NC3=O)c(Cl)c2)cn1 (stereo not drawn) [Compound 162]	290	100 to 1000	86	> 75	13	≤ 100	1.66	2.03	–	–	–	–	–	–
CC(C)(C(=O)NCc1cc(Cl)c(C2CCC(=O)NC2=O)c(Cl)c1)c1ncc(C(F)F)cn1 (stereo not drawn) [Compound 181, N-(3,5-dichloro-4-(2,6-dioxopiperidin-3-yl)benzyl)-2-(5-(difluoromethyl)pyrimidin-2-yl)-2-methylpropanamide]	190	100 to 1000	93	> 75	5	≤ 100	1.95	1.96	–	–	–	–	–	–
CC(C)(C(=O)NCc1cc(Cl)c(C2CCC(=O)NC2=O)c(Cl)c1)c1ccc(C2CC2)nn1 (stereo not drawn) [Compound 192]	90	≤ 100	92	> 75	5	≤ 100	0.75	0.94	–	–	–	–	–	–
C[C@]12C=CC(=O)C=C1CC[C@@H]1[C@@H]2[C@@H](O)C[C@@]2(C)[C@H]1CC[C@]2(O)C(=O)CO [prednisolone]	–	–	–	–	–	–	–	–	–	–	improvement	improvement	–	–
CCN1CCC(S(=O)(=O)NC(=O)Nc2c3c(cc4c2CCC4)CCC3)CC1 [selnoflast, reference compound]	–	–	–	–	–	–	–	–	843	746	improvement	improvement	89	79
